Data taken from patent publication US12011436B2, “Use of NOX inhibitors for treatment of cancer” (CALLIDITAS THERAPEUTICS SUISSE SA, priority 2017, dated 2024).

System: 4T1 cancer cells mixed with BALB/C breast CAFs
Assay: 4T1 breast cancer cells co-injected with CAFs into the mammary fat pad of mice, NOX4 inhibitor treatment
Format: in vivo, mouse
Conditions: 4T1+CAF tumours
Experimental: Fourteen (14) days after randomization and if the antitumor activity of NOX4/1 compounds alone or in combination is considered sufficient, tumors from 5 satellite mice per group are collected, weighed and the tumor is cut in 2 fragments. One fragment is cut into slices 4 mm thick and fixed in 4% neutral buffered formalin for 24 to 48 h, and then embedded in paraffin (Histosec®, Merck, Darmstadt, Germany). One fragment is embedded in tissue Freezing Medium (Microm Microtech, France), snap-frozen in isopentane cooled over liquid nitrogen and stored at […] until processing. Immunohistochemical stains for CD3, CD4 and CD8 are performed on paraffin-embedded tissue sections using standard techniques (Biodoxis, France). The number of CD3, CD4 and CD8 immunopositive cells per field are counted. When 4T1 cancer cells (0.5×105) are used, those are injected in PBS s.c into the upper mammary fat pad of female mice aged 8-10 weeks. Cells are either injected on their own, or mixed with 2.5×105 BALB/C breast CAFs isolated from transgenic BALBneuT spontaneous stromal-rich breast tumours. […] GKT137831 was reconstituted in 1.2% Methyl Cellulose (Sigma) with 0.1% Polysorbate (Sigma) and administered by oral gavage 5×/week at 40 mg/kg. Control mice received vehicle by oral gavage. For longer term dosing, 15 initial doses were given as stated, but reduced to 3×/week for 3 weeks at 50 mg/kg, then 2×/week for 3 weeks at 60 mg/kg. The anti PD-1 antibody (Bioxcell; RMP1-14) was given via […]) injection. 300 μg of the antibody or the IgG2a isotype control (Bioxcell) were given when tumours were palpable every other day, totaling 3 doses. For the data presented under FIG. 1, tumours were measured every 2-3 days by electronic skin caliper from longest width and length. Tumour volume was calculated using the formula 4/3πXr3, where the radius (r) was calculated from tumour width and length measurement to provide an average diameter value. Mice were randomized into groups based on tumour volume so that no statistical difference occurred between mean tumour volumes between groups before treatments began. […]

CN(C)c1cccc(-c2c3c(=O)n(-c4ccccc4Cl)[nH]c3cc(=O)n2C)c1 [GKT, 2-(2-chlorophenyl)-4-[3-(dimethylamino)phenyl]-5-methyl-1H-pyrazolo [4,3-c]pyridine-3,6(2H,5H)-dione]
SMA-positive CAF in tumours (immunochemistry) (FIG. 1B): significantly reduces | CD8+ T-cell location in tumour (immunochemistry) (FIG. 1C): relocation of CD8+ T-cells from the tumour edge into the centre of the tumour | tumour volume vs vehicle alone (day 15, after 8 days of treatment, oral gavage 40 mg/kg 5x/week, FIG. 1A): significantly smaller
